# Data reported in PubChem BioAssay AID2252 (Southern Research Specialized Biocontainment Screening …, 2010).
# System: THP-1 viability, CellTiter-Glo luminescence, 72 h
# Assay: PubChem AID 2252
row,SMILES,EC50
1,O=C(N/N=C/c1cc([N+](=O)[O-])ccc1O)C(O)(c1ccccc1)c1ccccc1,11.8 µM
2,COc1ccc(Nc2cc(C)c3c(O)cccc3n2)cc1,8.86 µM
3,C=CCNc1ncnc2c1[nH]c1ccc(Cl)cc12,7.13 µM
4,Oc1c(C(Nc2ccccn2)c2cccnc2)cc(Cl)c2cccnc12 (stereo not drawn),6.1 µM
5,O=C(Nc1ccc(Nc2ccncc2)cc1)c1ccc([N+](=O)[O-])cc1,11.9 µM
6,O=C(CCl)NC1CCCc2ccccc21 (stereo not drawn),25.7 µM
7,COc1ccc(CNC(=O)CCC(=O)N2C[C@H]3C[C@H](C2)c2cccc(=O)n2C3)cc1,< 0.1 µM
8,CC(/C=N/Nc1nc2ccccc2[nH]1)=C\c1ccccc1,33.4 µM
9,CC1CCC(C(C)C)C(OC(=O)Cn2c(COc3ccccc3)[n+](C)c3ccccc32)C1 (stereo not drawn),2.37 µM
10,CCCCCN=C(N)N/N=C/c1c[nH]c2ccc(OC)cc12,2.57 µM
11,Cc1cc2nc(C3CCN(CC4COc5ccccc5O4)CC3)[nH]c2cc1C (stereo not drawn),26.8 µM
12,O=C(N/N=C/c1cc(Cl)ccc1O)c1cccnc1,2.87 µM
13,O=CN/N=C/c1c(O)ccc2ccccc12,5.1 µM
14,Cc1ccc(C)c(NC(=O)CCC(=O)N/N=C/c2cc([N+](=O)[O-])ccc2O)c1,17.9 µM
15,O=[N+]([O-])c1ccc(O)c(/C=N/Nc2ccccn2)c1,0.42 µM
16,O=C(N/N=C/c1ccc(O)cc1O)C(=O)N/N=C/c1ccc(O)cc1O,12 µM
17,CCOC(=O)N/N=C(/C)c1ccc([N+](=O)[O-])o1,34.2 µM
18,CN(C)CC/C=C1/c2ccccc2Sc2ccc(Cl)cc21,10.1 µM
19,C#CC(=O)N(c1cccc(OC)c1)C(C(=O)NC1CCCC1)c1cccs1 (stereo not drawn),0.9 µM
20,Oc1ccc(COCc2ccccc2)c2cccnc12,1.24 µM
21,CCOC(=O)N1CCN(C(=S)NC(=O)c2ccc(Br)cc2)CC1,< 0.1 µM
22,O=C(N/N=C/c1cc(O)ccc1Br)c1cccnc1,2.86 µM
23,Nc1nc(Nc2ccc(Cl)cc2)nc2ccccc12,6.06 µM

row,SMILES,EC50
1,O=C(Nc1ccc(Cc2ccncc2)cc1)c1ccc([N+](=O)[O-])o1,4.02 µM
2,COc1ccc(C(=O)NC(=S)NNC(=O)c2cnccn2)cc1,2.98 µM
3,c1cncc(CSc2ccc(-c3cccs3)nn2)c1,35.2 µM
4,O=C(N/N=C/c1cc(Br)ccc1O)c1ccccc1Cl,1.49 µM
5,NC1=NC[C@H](c2ccccc2)N1CCCCC1CCCCC1,6.36 µM
6,CC(C)N1CSC(=S)N(Cc2ccccc2)C1,12.8 µM
7,Cc1ccc(C(=O)Sc2cccccc2=O)cc1,2.27 µM
8,COc1cccc(CNC23CC4CC(CC(C4)C2)C3)c1OCc1ccccc1,22.3 µM
9,CCCN(CCC)CCNC(=O)C1CCN(Cc2nc(-c3ccc(Cl)cc3)oc2C)CC1,24.8 µM
10,CCOc1ccccc1-c1cc(-c2ccccc2)nc2c1c(=O)n(C)c(=O)n2C,< 0.1 µM
11,CCCCCCCCCCOC(=O)Cn1c(COc2ccc(Cl)cc2)[n+](C)c2ccccc21,1.92 µM
12,C#CCOCCOCCOCCNc1nc(N2CCN(C(=O)CCCCCCCCCCNC(=O)Cn3cc(CCCCCN)nn3)CC2)nc(N2CCN(C(=O)CCCCCCCCCCNC(=O)[C@H]([C@@H](C)CC)n3cc(CCCCN=C(N)N)nn3)CC2)n1,11 µM
13,CCN1CCN(Cc2ccc(NC(=O)c3ccc(C)c(NC(=O)c4c[nH]c5cc(C(F)(F)F)ccc5c4=O)c3)cc2C(F)(F)F)CC1,2.04 µM
14,CCCCn1c(NCc2ccccc2NS(=O)(=O)c2ccc(C)cc2)nc2ccccc21,24.3 µM
15,Cc1c(C(=O)Nc2ccncc2)sc2nc(-c3ccc(F)cc3)cn12,19.6 µM
16,O=c1[nH]c(-c2ccccn2)nc(C(F)(F)F)c1Br,11.5 µM
17,CC(C)CCC(CCNCc1ccccn1)c1ccc(Cl)cc1 (stereo not drawn),16.2 µM
18,CCOc1cccc(CNCCc2c(C)[nH]c3ccc(OC(F)(F)F)cc23)c1O,3.51 µM
19,Cc1oc(/N=C/c2ccc(O)cc2O)c(C#N)c1C,< 0.1 µM
20,Cc1cc(Cl)c(OCCCNCc2ccccc2)c(Br)c1,21.4 µM
21,O=C(NC(=S)NNC(=O)c1ccco1)c1ccc(Br)cc1,19.7 µM
22,O=[N+]([O-])c1cc(CN2CCN(c3cccc(C(F)(F)F)c3)CC2)c2cccnc2c1O,1.74 µM
23,Clc1ccc(OCCCNCc2ccccc2)c(Br)c1,13.7 µM

row,SMILES,EC50
1,Nc1nc(F)nc2c1ncn2[C@@H]1O[C@H](CO)[C@@H](O)[C@H]1O,0.35 µM
2,O=C(NCCCNc1ccnc2cc(Cl)ccc12)c1ccccc1F,21.2 µM
3,CCN(CC)CCOC(=O)c1ccc(N/C=C(/C#N)c2nc(-c3ccc(OC)c(OC)c3)cs2)cc1,13.5 µM
4,Cc1nonc1C(=O)N/N=C/c1ccc([N+](=O)[O-])o1,40.7 µM
5,CCOC(=O)N1CCN(Cc2cc(Cl)c3cccnc3c2O)CC1,3.12 µM
6,CCCCOc1ccc(NC2=NC3(CCCCC3)N=C(N)N2)cc1,7.18 µM
7,OCCCCNCc1ccc(OCc2ccc(Cl)cc2Cl)cc1,9.8 µM
8,COc1ccc(C(=O)NC(=S)NNC(=O)c2cccc(C)c2)cc1,18.2 µM
9,CC(C)(C)c1ccc(NC(=O)NCc2ccco2)cc1,13.3 µM
10,CCOc1ccc(-c2nc(N)ncc2-c2ccccc2)c(O)c1,46.8 µM
11,Nc1nonc1-n1nnc(C(=O)N/N=C/c2cc(Br)ccc2O)c1CSC1=NCCS1,1.29 µM
12,O=C(Nc1nnc(C(F)(F)F)s1)c1ccc(Br)s1,22.2 µM
13,O=C(/C=C/c1cccs1)NC(=S)NNC(=O)c1ccccc1O,2.79 µM
14,O=S1(=O)Nc2c(ccc3cccnc23)-c2ccccc21,1.2 µM
15,Brc1ccc2c(c1)C(OC1CN3CCC1CC3)c1ccccc1CS2 (stereo not drawn),8.31 µM
16,CC(C)(C)c1ccc(OCCCCCCN2CCNCC2)cc1,13.8 µM
17,CCCCCCCCCCOC(=O)Cn1c(COc2ccc(C)cc2)[n+](C)c2ccccc21,2.36 µM
18,O=C(NCc1cccnc1)c1ccc(COc2ccc(Cl)cc2)cc1,43.8 µM
19,Cc1ccc(-c2cc(-c3ccc(C)cc3)[n+](-c3ccccc3)c(-c3ccc(C)cc3)c2)cc1,0.49 µM
20,O=C(NC1CCCCC1)c1ccc([N+](=O)[O-])o1,9.5 µM
21,Cc1ccc(C)c(N/C(N)=N/c2nc(C)cc(C)n2)c1,27 µM
22,COc1ccc(Nc2c3c(nc4ccc(C)cc24)CCC3)cc1,19 µM
23,Cc1cc(C)nc(/N=C(\N)Nc2ccc(SC(F)F)cc2)n1,12.8 µM

row,SMILES,EC50
1,O=C(N/N=C/c1ccc([N+](=O)[O-])o1)C(O)c1ccccc1 (stereo not drawn),17.9 µM
2,CCN1CCN(C2=C(NS(=O)(=O)c3ccc(Br)cc3)C(=O)c3ccccc3C2=O)CC1,18.2 µM
3,Cc1ccc(O)c(Nc2c3ccccc3nc3ccccc23)c1,14.2 µM
4,COc1ccc(Cc2nnc(N/N=C/c3ccc(O)cc3)[nH]c2=O)cc1OC,0.57 µM
5,CCCOc1ccc(C(=O)NNC(=S)NC(=O)c2ccco2)cc1,16.8 µM
6,Nc1ncn([C@@H]2O[C@H](CO)[C@@H](O)[C@H]2O)c(=O)n1,19.7 µM
7,COc1cc2c(cc1O)[C@H](Cc1ccc(Oc3cc(C[C@@H]4NCCc5cc(OC)c(O)cc54)ccc3O)cc1)NCC2,48.3 µM
8,CC(=O)NC(c1ccc(Cl)cc1Cl)c1ccc2cccnc2c1O (stereo not drawn),7.25 µM
9,CN(C)c1ccc(O)c2c1CC1CC3[C@@H](N(C)C)C(=O)C(C(N)=O)=C(O)[C@]3(O)C(=O)C1=C2O (stereo partly drawn),30.3 µM
10,CN(C)CCCN(C(=O)c1ccc2c(c1)CCCC2)c1nc2ccc(Cl)cc2s1,9.82 µM
11,CCN(CC)c1ccc(/C=N/NC(=O)c2ccc3nc[nH]c3c2)c(O)c1,0.9 µM
12,C#CCOCCOCCOCCNc1nc(N2CCN(C(=O)CCCCCCCCCCNC(=O)[C@H]([C@@H](C)CC)n3cc(CCCCCN)nn3)CC2)nc(N2CCN(C(=O)CCCCCCCCCCNC(=O)[C@@H]([C@H](C)O)n3cc(C)nn3)CC2)n1,13 µM
13,c1ccc(CN2CCC(Nc3nc(-c4cccs4)nc4ccccc34)CC2)cc1,8.03 µM
14,O[C@@H](c1cc(C(F)(F)F)nc2c(C(F)(F)F)cccc12)[C@H]1CCCCN1,3.98 µM
15,COc1ccc(/C=N/NC(=O)c2cc3c(OC)ccc(OC)c3[nH]2)cc1O,2.53 µM
16,CCCCCCCCCCOC(=O)Cn1c(COc2ccccc2OC)[n+](C)c2ccccc21,1.64 µM
17,COc1ccc(/C=C/C(=O)NC(=S)NNC(=O)c2cnccn2)cc1,2.81 µM
18,Cc1ccc(-n2c(Cc3noc4ccccc34)n[nH]c2=S)cc1,< 0.1 µM
19,O=C(O)c1csc(-c2ccc(Cl)cc2)n1,< 0.1 µM
20,Cc1cc(C2N=C(N)Nc3nc4ccccc4n32)c(C)n1-c1ccccc1Cl (stereo not drawn),11.4 µM
21,CCCCCSc1cc(OC)c(CCNC)cc1OC,13.9 µM
22,CN1C(=O)/C(=C/c2cccc(Cl)c2)Sc2ccc(C(=O)N3CCCC3)cc21,21.1 µM
23,CCOc1ccc(/C=N/NC(=O)c2[nH]ncc2Br)c(O)c1,1.47 µM

row,SMILES,EC50
1,CCOc1cccc(/C=N/NC(=O)c2cc(C3CC3)[nH]n2)c1O,5.46 µM
2,O=[N+]([O-])c1cc(Cl)c2cccnc2c1O,28.7 µM
3,C=C1c2c(Cl)ccc(O)c2C(O)=C2C(=O)[C@]3(O)C(O)=C(C(N)=O)C(=O)[C@@H](N(C)C)[C@@H]3[C@@H](O)C12 (stereo partly drawn),13.4 µM
4,CC(C)[C@@H]1CC[C@@H](C)C[C@H]1OC(=O)C[n+]1cc(-c2ccc(Cl)cc2)n2c1CCCCC2,2.19 µM
5,CCC(C)(C)c1ccc(OCCCC[n+]2ccccc2)c(C(C)(C)CC)c1,0.97 µM
6,OC(CNCCc1ccc(Cl)cc1Cl)COc1ccccc1 (stereo not drawn),29.2 µM
7,O=C(Nc1nnc(-c2cccs2)o1)c1cccc(Oc2ccccc2)c1,18.6 µM
8,Cc1ccc(N=Cc2cc(Br)cc(Cl)c2O)cc1,49.5 µM
9,Cc1ccc(Nc2nc(NCCO)c3ccccc3n2)cc1C,3.06 µM
10,COc1ccc(C(C[N+](=O)[O-])C2(c3ccc(OC)c(OC)c3)C(=O)c3ccccc3C2=O)cc1 (stereo not drawn),9.85 µM
11,CCc1ccc2c(c1)C1(NN=C(c3ccc(C)cc3)S1)C(=O)N2 (stereo not drawn),9.42 µM
12,Cn1c(-c2ccc3c(c2)OCO3)cnc1NCc1ccc(Cl)cc1,28.8 µM
13,CN1CCN(c2nc3cc(C(F)(F)F)ccc3n3cccc23)CC1,42.3 µM
14,C/C(=N\N=C(N)N)c1ccc(Cl)c(Cl)c1,13.3 µM
15,CCC(=O)c1ccc(OCC(O)CNCCc2ccc(Cl)cc2)cc1 (stereo not drawn),28.9 µM
16,O=c1ccc2cc3c([nH]c4ccc(Br)cc43)oc-2c1O,18.9 µM
17,Clc1cccc(CN2CCc3c([nH]c4ccccc34)C2)c1Cl,8.82 µM
18,OC(c1cc(C(F)(F)F)nc2c(C(F)(F)F)cccc12)C1CCCCN1 (stereo not drawn),7.61 µM
19,OCCNCc1cc(Br)ccc1OCc1ccc(Cl)cc1,15.9 µM
20,CCN1c2ccccc2NC2N=C(OC)C(c3ccccc3)C21 (stereo not drawn),16.1 µM
21,CCCCCc1ccc(OCCCC[n+]2cccc(C)c2)c(CCCCC)c1,1.05 µM
